# Measured values: article PMC6154692, “Determination of Vancomycin in Human Serum by Cyclodextrin-Micellar Electrokinetic Capillary Chromatography (CD-MEKC) and Application for PDAP Patients” (Molecules : A Journal of Synthetic Chemistry and Natural …, 2017)
# Assays:
# [1] = Stability of VCM in spiked human serum QC samples (bench-top, 30-day, autosampler, freeze-thaw), read by CD-MEKC; format: in vitro ADME; details: for Accuracy (%), autosampler stability / Accuracy (%), freeze–thaw stability / Accuracy (%), bench-top stability / Accuracy (%), 30-day stability: found vs initial concentration, CD-MEKC UV; for Accuracy (%), autosampler stability: 25 °C for 8 h; for Accuracy (%), autosampler stability / Accuracy (%), freeze–thaw stability / Accuracy (%), bench-top stability / Accuracy (%), 30-day stability / Measured Concentration (Mean ± SD), bench-top stability / Measured Concentration (Mean ± SD), autosampler stability / Measured Concentration (Mean ± SD), freeze–thaw stability / Measured Concentration (Mean ± SD), 30-day stability: n = 5; for Accuracy (%), freeze–thaw stability: three freeze–thaw cycles; for Accuracy (%), bench-top stability: 25 °C for 2 h; for Accuracy (%), 30-day stability: −80 °C, 30 days; for Measured Concentration (Mean ± SD), bench-top stability: ambient temperature (25 °C) for 2 h; for Measured Concentration (Mean ± SD), bench-top stability / Measured Concentration (Mean ± SD), autosampler stability / Measured Concentration (Mean ± SD), freeze–thaw stability / Measured Concentration (Mean ± SD), 30-day stability: CD-MEKC UV 210 nm; for Measured Concentration (Mean ± SD), autosampler stability: spiked human serum sample, kept at ambient temperature (25 °C) for 8 h; for Measured Concentration (Mean ± SD), freeze–thaw stability: after three freeze–thaw cycles; for Measured Concentration (Mean ± SD), 30-day stability: stored at −80 °C for 30 days
# Description: Analyte stability determinations comprised short-term temperature stability (bench-top stability), long-term stability (30-day stability), autosampler stability, and freeze-thaw cycles stability, which were evaluated by analyzing three QC levels in VCM. The peak areas obtained from both stability tests were compared with the peak areas obtained with freshly prepared samples. The mean values and standard deviations of the ratios between the concentrations found and initial concentration were used for stability evaluation.
# The BGE used in this study was 25 mM borate buffer with 50 mM SDS and 2% sulfobutyl-β-CD (pH 9.50). It was prepared by weighting appropriate amounts of Na2B4O7∙10H2O, SDS, and sulfobutyl-β-CD, followed by thoroughly mixing and dissolving with 100 mL deionized water. NaOH (1 mol/L) was used for adjusting pH to 9.50. BGE solutions were prepared freshly every day and filtered through a 0.45 μm hydrophilic cellulose membrane filter prior to use. The separation voltage was 15 kV (+) → (−). Hydrodynamic injection mode was performed at a pressure of 0.5 psi for 5 s. The capillary was conditioned by rinsing with 0.1 mol/L NaOH (1 min) followed by BGE (5 min) sequentially between the runs in order to maintain an active and reproducible inner surface.
# Standard stock solution (1 mg/mL) of VCM and the IS were prepared in methanol. Working standard solutions (ranging from 10 to 500 µg/mL) were prepared daily by diluting the stock solution to the desired concentration with deionized water. The IS solution was prepared by deionized water at the concentration of 200 µg/mL. The standard solutions were stored in brown glass vials to protect from light at 4 °C. Calibration samples were obtained by diluting standard working solutions (10 μL) with drug-free human control serum (90 μL), to span a calibration standard range of 1–100 µg/mL for VCM. QC samples (3, 15, 80 µg/mL) were independently prepared by spiking an appropriate amount of the working standard solution in drug-free human control serum.
# A simple and rapid sample preparation was applied by protein precipitation in SiroccoTM 96-well filtration plate (Waters Corp., Milford, MA, USA). Standard curve samples (100 μL), QC samples, and subject serum samples were added individually into 96-well plates by an eight-channel hand-held pipettor. To precipitate the serum protein, 200 μL ACN (acetonitrile) solution c ontaining 100 μg/mL of the IS solution was added to each sample (standards, QCs, and samples). Sirocco plates were capped and mixed by vortexing for 3 min and held for 15 min, subsequently placed on a vacuum manifold, and filtered to remove any precipitated material. The filtrate was collected into another 96-well plate and was evaporated to dryness with a nitrogen flow at 37 °C (TURBOVAP 96, Biotage, Uppsala, Sweden). All dry residues were reconstituted by the addition of 50 μL water. Finally, the plates were vortex mixed for 1 min, followed by centrifugation for 10 min at 12,000 rpm at 4 °C using a 5804 R Eppendorf refrigerated centrifuge (Hamburg, Germany). The supernatant was transferred to the autosampler for injection onto the CE.
# PDAP patients = assay: Clinical safety observation in PDAP patients treated with i.p. vancomycin; format: in vivo, human
# Description: Patients were treated with intraperitoneal (i.p.) vancomycin (Vancocin, Eli Lilly) for 1.0 g every 5–7 days. Nine PDAP patients’ samples were collected, and the trough concentrations of VCM were measured. […] Side effects were not observed in patients who were treated with VCM. The 15–20 µg/mL range was determined in three samples (17.06 µg/mL, 15.39 µg/mL, and 19.25 µg/mL), which was reported as the effective treatment window. […] In view of patients’ residual renal function and peritoneal permeability, levels <15 µg/mL were found in four samples (12.88 µg/mL, 5.48 µg/mL, 8.90 µg/mL, and 9.30 µg/mL). ISPD recommends that re-dosing is appropriate once serum vancomycin levels go below 15 µg/mL.
# [2] = parameters: method as in doi:10.1016/0378-5173(93)90252-B; details: cited from earlier work
# Text: The pH value of BGE is an important factor in CE. VCM is a glycopeptide antibiotic with quite a complex structure. It contains six functional groups which participate in acid-base equilibria. Namely, its net charge in solution strongly depends on the solution pH. […] Protonations of amino (primary and secondary amino) and three phenolate groups take place between pH 13 and 5 in multiply overlapping stages. […] Owing to t ...
# [3] = intraperitoneal, in the presence of peritonitis; ref guideline of ISPD; cited from earlier work
# [4] = spiked human serum, HQC 80 µg/mL
# [5] = spiked human serum, LQC 3 µg/mL
# [6] = spiked human serum, MQC 15 µg/mL
smiles,measurement,setting,value
"CN[C@H](CC(C)C)C(=O)N[C@H]1C(=O)N[C@@H](CC(N)=O)C(=O)N[C@H]2C(=O)N[C@H]3C(=O)N[C@H](C(=O)N[C@H](C(=O)O)c4cc(O)cc(O)c4-c4cc3ccc4O)[C@H](O)c3ccc(c(Cl)c3)Oc3cc2cc(c3O[C@@H]2O[C@H](CO)[C@@H](O)[C@H](O)[C@H]2O[C@H]2C[C@](C)(N)[C@H](O)[C@H](C)O2)Oc2ccc(cc2Cl)[C@H]1O [VCM, vancomycin]",Stability in spiked serum samples (in words),"[1]; bench-top, 30-day, autosampler and freeze-thaw conditions, three QC levels",stable
same,"Accuracy (%), autosampler stability",[1]; HQC 80 µg/mL,105.70%
same,"Accuracy (%), freeze–thaw stability",[1]; HQC 80 µg/mL,108.80%
same,"Accuracy (%), autosampler stability",[1]; LQC 3 µg/mL,103.80%
same,"Accuracy (%), freeze–thaw stability",[1]; LQC 3 µg/mL,110.40%
same,"Accuracy (%), autosampler stability",[1]; MQC 15 µg/mL,107.10%
same,"Accuracy (%), freeze–thaw stability",[1]; MQC 15 µg/mL,104.60%
same,"Accuracy (%), bench-top stability",[1]; [4],108.40%
same,"Accuracy (%), 30-day stability",[1]; [4],106.60%
same,"Accuracy (%), bench-top stability",[1]; [5],107.80%
same,"Accuracy (%), 30-day stability",[1]; [5],104.70%
same,"Accuracy (%), bench-top stability",[1]; [6],102.70%
same,"Accuracy (%), 30-day stability",[1]; [6],104.90%
same,"Measured Concentration (Mean ± SD), bench-top stability","[1]; spiked human serum (table title: plasma), LQC 3 µg/mL",3.271 ± 0.02 µg/mL
same,"Measured Concentration (Mean ± SD), autosampler stability",[1]; HQC 80 µg/mL,85.57 ± 0.29 µg/mL
same,"Measured Concentration (Mean ± SD), autosampler stability",[1]; LQC 3 µg/mL,3.15 ± 0.01 µg/mL
same,"Measured Concentration (Mean ± SD), autosampler stability",[1]; MQC 15 µg/mL,16.26 ± 0.09 µg/mL
same,"Measured Concentration (Mean ± SD), freeze–thaw stability",[1]; [4],88.01 ± 0.23 µg/mL
same,"Measured Concentration (Mean ± SD), bench-top stability",[1]; [4],87.69 ± 0.38 µg/mL
same,"Measured Concentration (Mean ± SD), 30-day stability",[1]; [4],86.24 ± 0.52 µg/mL
same,"Measured Concentration (Mean ± SD), freeze–thaw stability",[1]; [5],3.35 ± 0.02 µg/mL
same,"Measured Concentration (Mean ± SD), 30-day stability",[1]; [5],3.18 ± 0.01 µg/mL
same,"Measured Concentration (Mean ± SD), freeze–thaw stability",[1]; [6],15.88 ± 0.07 µg/mL
same,"Measured Concentration (Mean ± SD), bench-top stability",[1]; [6],15.59 ± 0.09 µg/mL
same,"Measured Concentration (Mean ± SD), 30-day stability",[1]; [6],15.92 ± 0.08 µg/mL
same,Side effects,"PDAP patients; PDAP patients treated with VCM, i.p. 1.0 g every 5–7 days",not observed
same,Changes in renal function before and after treatment,"PDAP patients; nine PDAP patients, i.p. vancomycin 1.0 g every 5–7 days",No significant changes
same,pI value,[2],about 7.10
same,Fraction of i.p. vancomycin absorbed,[3],approximately 90%
